Series [1] can be described thus: in vitro. To be noted: dog.
Series [2] concerns MDCK cells. Also noted: unit not given beside the values.
Series [3] has as its system MDBK cells. Nature of the series: Mitotic regime of MDBK cells (cytological analysis). In kind it is cell-based, bovine. To be noted: dilution 1:1000; for Abnormal mitoses MDBK / Mitotic activity MDBK: relative to tissue control. Here is the method: Cytological analysis was performed after fixing the cells grown on cover-glasses in Shabadash's fluid (9 parts of copper nitrate in ethyl alcohol+1 part of formalin) for 30 minutes. The samples for the cytological analysis were stained using hematoxylin and eosin stain according to the generally accepted procedure.
The mitotic index was calculated by analyzing 3000-10000 observed cells and was expressed in ppm (‰), which was the number of mitoses per 1000 cells. At the same time, the presence of pathological forms of mitosis was determined. A classification developed by V. N. Blyumkin was used for the analysis of pathological mitoses.
The examination of cytological preparations was carried out with lenses ×40 and ×100, eyepiece ×10 in a Standard 20, Zeiss microscope.
The experiment was conducted on the culture of MDBK cells that were treated with various options of the drugs. After 24 hours of contact the cells were fixed and cytological preparations were made using a standard technique.
The culture of MDBK cells was selected for the study. The cells were treated with various drug options at concentrations nontoxic for cells. After 24 hours of contact, the cells were fixed and cytological preparations were prepared according to a conventional technique.

Series [4] deals with Raji cells.
Experimental: A colorimetric assay using MTT 3-(4,5-dimethylthiazol-2-yl)-2,5-diphenyltetrazolium bromide (Sigma, USA) is based on the features of functioning of the dehydrogenase system of mitochondria of living cells which, under normal conditions, reprocess the artificial substrate MTT into a formazan that can be accounted spectrophotometrically.
The MTT substrate (Sigma, USA) was dissolved in sterile phosphate buffered saline (pH 7.2) at room temperature to a concentration of 5 mg/ml. The filtered MTT solution in a volume of 20 μl was added to the wells of a 96-well plate and incubated with the cells for 2 to 4 hours at 37° C. After incubation, the medium was removed, and 150 μl of 96° ethanol was added to the cells to dissolve the formazan crystals. The optical density of the solutions was determined spectrophotometrically using a Multican FC reader (“Thermo Scientific” (USA)) at a wavelength of 540 nm.
Cytotoxicity of the preparations under study was assessed using the MTT (3-(4,5-dimethylthiazol-2-yl)-2-5-diphenyltetrozolium bromide) assay, one of the commonly used colorimetric assay (Sigma USA). This assay determined cell viability through determination of mitochondrial function of cells by measuring activity of mitochondrial enzymes such as succinate dehydrogenase. In this assay, MTT is reduced to a purple formazan by NADH, which can be quantified spectrophotometrically. […] The purple color was measured at an excitation wavelength of 540 nm using a Thermo Scientific (USA) reader.
Series [5] relates to herpes simplex virus. The series is described as follows: Light water at various doses in mice infected intracerebrally with herpes virus. In kind it is in vivo. The conditions noted are these: 14 day; for Number of survived mice: 8 mice. As for the experimental part:
Thus 50, 100 and 200 μl per mouse were administered to the infected animals.
Groups consisting of 8 mice each were included in the experiment. […] The first administration of drugs was 24 hours later. After infection, there were 4 injections in total given every other day. Uninfected mice who received intracerebral injections of 30 μl of normal saline solution and the mice infected with HSV served as a control.

Series [6] has as its system influenza virus A/FM/1/47 (H1N1). Type of series: in vivo, BALB/c mice. To be noted: reference drug, 1000 μg/kg.
Series [7] relates to herpes virus. The series is described as follows: Herpes virus meningoencephalitis model in mice, treatment regimen. To be noted: dose 100 μg.
Experimental: The anti-herpes activity of zinc preparations was studied in the model of herpes virus meningoencephalitis in BALB/c mice (18-20 g in weight) with their intracerebral administration at a dose of 0.03 ml. In all the experimental groups, the drug was administered intraperitoneally at a dose of 0.1 ml. […] 4B—Zn-64 citrate in deuterium-depleted water—3 mg/ml • 2. 4B-2—Zn citrate in deuterium-depleted water—3 mg/ml • 3. 8B—Zn-64 glutamate in deuterium-depleted water—3 mg/ml • 4. 8B-2—Zn glutamate in deuterium-depleted water—3 mg/ml • 5. 9B—Zn-64 glycine-methionine in deuterium-depleted water—1 mg/ml • 6. 9B-2—Zn glycine-methionine in deuterium-depleted water—1 mg/ml
The drug activity was evaluated by comparing the lethality in the experimental and control groups. The following factors were taken into account: • percentage of animals that died • multiplicity of protection (MP)—multiplicity of decrease in the number of dead mice in the experimental group compared to the control group • efficacy index (EI) of the drugs was determined using the following formula:

Values after ≈ are worked out from the molar mass of the structure shown. Read-outs that look alike come from different tables or passages of the source.

As for `N[C@@H](CC(=O)O)C(=O)O` [9a, aspartic acid], in series [1], the CC50 at 5 days amounted to 42 µg/mL (≈ 316 µM). In series [2], the CC50 as dilution is on record as 1/80.
In the case of `Cc1ccc(S(=O)(=O)Nc2ccccc2NC(=O)c2ccccc2)cc1` [10-3, n-n-toluenesulfonyl-n-benzoyl-o-phenylenediamine], the “Abnormal mitoses in %” value in series [3] (MDBK, 24 h) worked out at 25.0%. For the same compound, the “Mitotic activity in %” value in series [3] (MDBK, 24 h) is 16.0%. Besides, the “Abnormal mitoses MDBK” value in series [3] is reported as 1.12. Besides, the “Mitotic activity MDBK” value in series [3] came to 0.88. Moreover, the “viability of Raji cells (MTT reading)” value in series [4] (0.9 μg/ml) is listed as 1.287; in series [4] (9 μg/ml) it was 1.235; in series [4] (18 μg/ml), 0.1791; in series [4] (90 μg/ml) it was 0.152. Besides, the CC50 in series [4] (Raji cells, MTT) is 33.46 µg/mL (≈ 91.3 µM).
In the case of `N[C@@H](CCC(=O)O)C(=O)O` [10a, glutamic acid], in series [3] (MDBK, 24 h), the “Abnormal mitoses in %” value stood at 22.2%. For the same compound, in series [3], the “Abnormal mitoses MDBK” value is recorded as 1.0 and the “Mitotic activity MDBK” value came out at 0.77. For the same compound, the CC50 as dilution in series [2] is 1:160.
In the case of `Nc1nc2c(ncn2COCCO)c(=O)[nH]1` [Aciclovir, Acyclovir, reference compound], in series [5] (reference, dose not given), the “MP (%)” value was determined as 25% and the “Number of survived mice” value is 2.
In the case of `O=C(O)CC(O)(CC(=O)O)C(=O)O` [No 8a, citric acid], the CC50 at 5 days in series [1] was determined as 14 µg/mL (≈ 72.9 µM). Also, the CC50 as dilution in series [2] is on record as 1/160.
In the case of `CCOC(=O)C1=C[C@@H](OC(CC)CC)[C@H](NC(C)=O)[C@@H](N)C1` [Tamiflu], in series [6], the “EI (efficacy index)” value was determined as 70 and the “Inhibition of infectious titer in cerebral tissue in lg TCD50” value is 2.5 lg TCD50. Further, in series [6] (10 mice), the “Number of mice that died, %” value was 30.0% and the “Number of mice that died, total” value is 3.
Regarding Deuterium-depleted water, the results for the “MP (%)” value in series [5] (50 μl/mouse), in series [5] (100 μl/mouse) and in series [5] (200 μl/mouse) were 38%, 50% and 75%, respectively. The “Number of survived mice” value is on record as 3 in series [5] (50 μl/mouse, 4 injections); 4 in series [5] (100 μl/mouse, 4 injections); 6 in series [5] (200 μl/mouse, 4 injections). Moreover, in series [7], the “EI (efficacy index)” value was 50.0. For the same compound, the “Inhibition of infectious titer in cerebral tissue in lg TCD50” value in series [7] is recorded as 2.0 lg TCD50. Also, the “MP (multiplicity of protection)” value in series [7] was 2.0. Also, the “Number of mice that died, %” value in series [7] (10 mice) was determined as 50.0%. Besides, the “Number of mice that died, total” value in series [7] (10 mice) was found to be 5.
